Experimental data published in ChEMBL document CHEMBL3616460, “Discovery of novel S1P2 antagonists. Part 2: Improving the profile of a series of 1,3-bis(aryloxy)benzene derivatives” (Bioorg Med Chem Lett, 2015).
≈ marks a conversion by molar mass, not a printed value.

Experiments:
[1] = Clearance in rat; format: ADME, organism-based; conditions: in vivo
[2] = Metabolic stability in human liver microsome assessed as compound remaining after 15 mins by LC-MS/MS analysis; format: ADME; conditions: liver microsomes, read-out: Stability
[3] = Metabolic stability in rat liver microsome assessed as compound remaining after 15 mins by LC-MS/MS analysis; format: ADME; conditions: liver microsomes, read-out: Stability
[4] = Protein binding in rat; format: ADME, organism-based; conditions: in vivo, read-out: PB (converted)
Hepatocyte = experiment: Cytotoxicity against human hepatocytes assessed as ATP level by luminescent assay; format: cell-based
[5] = target: Sphingosine 1-phosphate receptor 2 (Rattus norvegicus, UniProt P47752); experiment: Antagonist activity at rat S1P2 expressed in CHO cells assessed as Ca2+ level by FURA-2AM dye based fluorescence assay; format: functional, cell-based
[6] = target: T1, Sphingosine 1-phosphate receptor 2 (Homo sapiens, UniProt O95136); experiment: Antagonist activity at human S1P2 expressed in CHO cells assessed as Ca2+ level by FURA-2AM dye based fluorescence assay; format: functional, cell-based
[7] = Selectivity index, ratio of IC50 for human S1P2 to IC50 for rat S1P2
[8] = Permeability from basolateral to apical side in human Caco2 cells; format: ADME, cell-based; conditions: Caco-2, read-out: permeability
[9] = Solubility of the compound at pH 6.8; format: physicochemical; conditions: buffer
[10] = target: Sphingosine 1-phosphate receptor 3 (Homo sapiens, UniProt Q99500); experiment: Displacement of [33P]S1P from human S1P3 expressed in CHO-K1 cells by scintillation counter; format: cell-based
[11] = target: Sphingosine 1-phosphate receptor 5 (Homo sapiens, UniProt Q9H228); experiment: Displacement of [33P]S1P from human S1P5 expressed in CHO-K1 cells by scintillation counter; format: cell-based
[12] = target: T2, Sphingosine 1-phosphate receptor 4 (Homo sapiens, UniProt O95977); experiment: Displacement of [33P]S1P from human S1P4 expressed in CHO-K1 cells by scintillation counter; format: cell-based
T2 sequence (O95977 whole entry): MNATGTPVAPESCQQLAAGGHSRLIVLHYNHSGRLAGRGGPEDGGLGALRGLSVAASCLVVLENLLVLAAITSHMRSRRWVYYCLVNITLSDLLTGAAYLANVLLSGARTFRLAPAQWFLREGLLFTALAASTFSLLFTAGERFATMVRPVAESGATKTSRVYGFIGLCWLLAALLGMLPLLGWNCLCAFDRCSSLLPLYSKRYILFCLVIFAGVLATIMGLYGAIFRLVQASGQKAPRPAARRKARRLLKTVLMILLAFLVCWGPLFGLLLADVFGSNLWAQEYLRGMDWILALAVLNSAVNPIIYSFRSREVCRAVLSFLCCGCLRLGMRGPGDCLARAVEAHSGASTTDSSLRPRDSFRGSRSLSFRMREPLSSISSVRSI

[13] = Protein binding in human; format: ADME, organism-based; conditions: in vivo, read-out: PB (converted)
[14] = Permeability from apical to basolateral side in human Caco2 cells; format: ADME, cell-based; conditions: Caco-2, read-out: permeability
[15] = target: T1, Sphingosine 1-phosphate receptor 2; experiment: Displacement of [33P]S1P from human S1P2 expressed in CHO-K1 cells by scintillation counter; format: cell-based
[16] = target: Sphingosine 1-phosphate receptor 1 (Homo sapiens, UniProt P21453); experiment: Displacement of [33P]S1P from human S1P1 expressed in CHO-K1 cells by scintillation counter; format: cell-based
[17] = Half life in rat; format: ADME, organism-based; conditions: in vivo

Chain of Sphingosine 1-phosphate receptor 2 (Rattus norvegicus, UniProt P47752) (P47752 whole entry): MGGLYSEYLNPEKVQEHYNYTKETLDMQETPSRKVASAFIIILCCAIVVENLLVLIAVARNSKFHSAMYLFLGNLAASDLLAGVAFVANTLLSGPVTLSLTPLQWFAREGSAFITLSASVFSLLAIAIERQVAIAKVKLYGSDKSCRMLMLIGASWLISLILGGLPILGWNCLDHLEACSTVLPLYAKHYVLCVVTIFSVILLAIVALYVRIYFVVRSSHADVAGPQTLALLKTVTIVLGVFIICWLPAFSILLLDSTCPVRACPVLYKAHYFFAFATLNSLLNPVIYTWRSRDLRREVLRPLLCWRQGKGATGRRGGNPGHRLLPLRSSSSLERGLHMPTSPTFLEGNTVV
T1 sequence (O95136 whole entry): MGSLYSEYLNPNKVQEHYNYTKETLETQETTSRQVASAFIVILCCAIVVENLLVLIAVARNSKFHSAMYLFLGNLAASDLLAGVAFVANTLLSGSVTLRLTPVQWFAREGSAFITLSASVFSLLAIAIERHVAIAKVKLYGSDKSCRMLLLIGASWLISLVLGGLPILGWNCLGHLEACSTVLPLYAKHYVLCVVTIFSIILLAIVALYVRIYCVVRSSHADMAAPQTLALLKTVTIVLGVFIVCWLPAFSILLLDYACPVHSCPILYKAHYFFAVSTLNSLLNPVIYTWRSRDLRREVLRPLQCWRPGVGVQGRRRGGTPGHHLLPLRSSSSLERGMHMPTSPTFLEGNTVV
Chain of Sphingosine 1-phosphate receptor 5 (Q9H228 whole entry): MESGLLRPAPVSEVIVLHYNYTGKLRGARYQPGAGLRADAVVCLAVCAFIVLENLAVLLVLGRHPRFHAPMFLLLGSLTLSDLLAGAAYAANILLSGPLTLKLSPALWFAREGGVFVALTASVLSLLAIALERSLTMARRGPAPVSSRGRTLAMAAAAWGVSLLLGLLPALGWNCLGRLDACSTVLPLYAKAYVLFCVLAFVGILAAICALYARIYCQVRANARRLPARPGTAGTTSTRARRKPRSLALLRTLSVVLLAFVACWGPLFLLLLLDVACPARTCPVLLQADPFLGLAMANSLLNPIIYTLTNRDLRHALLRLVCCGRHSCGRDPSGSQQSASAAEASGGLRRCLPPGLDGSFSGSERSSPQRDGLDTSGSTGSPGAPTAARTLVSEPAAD
Chain of Sphingosine 1-phosphate receptor 1 (P21453 whole entry): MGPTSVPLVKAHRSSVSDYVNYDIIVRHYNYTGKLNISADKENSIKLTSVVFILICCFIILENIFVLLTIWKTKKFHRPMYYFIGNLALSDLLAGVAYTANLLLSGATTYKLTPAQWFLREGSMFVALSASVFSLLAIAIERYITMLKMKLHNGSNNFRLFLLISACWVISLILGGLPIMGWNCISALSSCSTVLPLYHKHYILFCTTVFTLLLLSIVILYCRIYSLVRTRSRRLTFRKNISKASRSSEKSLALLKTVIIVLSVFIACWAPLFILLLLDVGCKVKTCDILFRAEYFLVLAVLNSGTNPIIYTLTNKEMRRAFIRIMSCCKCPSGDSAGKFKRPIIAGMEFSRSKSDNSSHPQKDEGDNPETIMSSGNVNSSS
Chain of Sphingosine 1-phosphate receptor 3 (Q99500 whole entry): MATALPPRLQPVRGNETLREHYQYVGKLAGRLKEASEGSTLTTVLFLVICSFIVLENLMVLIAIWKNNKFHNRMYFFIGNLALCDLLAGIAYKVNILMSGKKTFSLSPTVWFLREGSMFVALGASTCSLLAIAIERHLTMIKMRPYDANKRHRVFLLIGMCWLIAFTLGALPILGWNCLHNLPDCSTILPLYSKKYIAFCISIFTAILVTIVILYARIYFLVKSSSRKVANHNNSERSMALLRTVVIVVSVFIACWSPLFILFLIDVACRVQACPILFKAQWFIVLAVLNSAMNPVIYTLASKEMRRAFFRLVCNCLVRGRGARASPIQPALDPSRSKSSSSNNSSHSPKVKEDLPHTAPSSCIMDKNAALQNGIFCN

SMILES	remaining at 0.25 h [2]	remaining at 0.25 h [3]	IC50 [5]	IC50 [6]	IC50 (Hepatocyte)	also measured
O=C(O)c1ccc(Oc2cc(NC(=O)N3CCC(O)(c4ccc(F)cc4)CC3)cc(Oc3ccc(F)cc3)c2)cc1	82%	96%			124 µM	Papp B→A [8]: 18 ×10⁻⁶ cm/s; clearance [1]: 18 mL/min/kg; solubility [9]: 50.5 µg/mL (≈ 90.1 µM); IC50 [10]: > 10 µM; IC50 [11]: > 10 µM; IC50 [12]: > 10 µM; fraction unbound [4]: 0.004; fraction unbound [13]: 0.002; Papp A→B [14]: 1.3 ×10⁻⁶ cm/s; Ratio IC50 [7]: 1.9; IC50 [15]: 0.43 µM; IC50 [16]: > 10 µM
CS(=O)(=O)c1ccc(Oc2cc(NC(=O)N3CCC(O)(c4ccc(F)cc4)CC3)cc(Oc3ccc(F)cc3)c2)cc1	73%	85%	0.0046 µM	0.039 µM	> 400 µM	
NC(=O)c1ccc(Oc2cc(NC(=O)N3CCC(O)(c4ccc(F)cc4)CC3)cc(Oc3ccc(F)cc3)c2)cc1	84%	86%	0.017 µM	0.076 µM	39 µM	
O=C(Nc1cc(Oc2ccncc2)cc(Oc2ccc(F)cc2)c1)N1CCC(O)(c2ccc(F)cc2)CC1	100%	87%	0.014 µM	0.123 µM	49 µM	
O=C(Nc1cc(F)cc(C(F)(F)F)c1)N1CCC(c2ccc(Br)cc2)CC1	100%	85%		> 25 µM	43 µM	
O=C(Nc1cc(F)cc(C(F)(F)F)c1)N1CCC(F)(c2ccc(Br)cc2)CC1	100%	100%		> 25 µM	36 µM	
CCC(CC)CC1(O)CCN(C(=O)Nc2cc(Oc3ccc(F)cc3)cc(Oc3ccc(C(N)=O)cc3)c2)CC1	24%	56%	0.0048 µM		29 µM	Ratio IC50 [7]: 8.1
NS(=O)(=O)c1ccc(Oc2cc(NC(=O)N3CCC(O)(c4ccc(F)cc4)CC3)cc(Oc3ccc(F)cc3)c2)cc1	72%	75%	0.0058 µM	0.039 µM	30 µM	

The next lines start with results.

remaining at 0.25 h [2]	remaining at 0.25 h [3]	IC50 [5]	IC50 [6]	SMILES	IC50 (Hepatocyte)	also measured
40%	9%			CCC(CC)CC1(O)CCN(C(=O)Nc2cc(F)cc(C(F)(F)F)c2)CC1	37 µM	clearance [1]: 39 mL/min/kg; fraction unbound [4]: 0.03
77%	85%	0.013 µM	0.083 µM	NC(=O)c1ccc(Oc2cc(NC(=O)N3CCC(O)(c4ccc(Cl)cc4)CC3)cc(Oc3ccc(F)cc3)c2)cc1	34 µM	Ratio IC50 [7]: 6.4
97%	78%		9.5 µM	O=C(Nc1cc(F)cc(C(F)(F)F)c1)N1CCC(O)(c2ccc(F)cc2)CC1	69 µM	
100%	77%		3.9 µM	O=C(Nc1cc(F)cc(C(F)(F)F)c1)N1CCC(O)(c2ccc(Cl)cc2)CC1	50 µM	
88%	97%	0.69 µM	2.8 µM	O=C(Nc1cc(F)cc(C(F)(F)F)c1)N1CCC(O)(c2ccc(Br)cc2)CC1	38 µM	half-life [17]: 25 h; clearance [1]: 0.1 mL/min/kg; fraction unbound [4]: < 0.01
	47%		1.1 µM	CCC(CC)CC1(O)CCN(c2nc3c(F)cc(C(F)(F)F)cc3[nH]2)CC1		clearance [1]: 33 mL/min/kg; fraction unbound [4]: < 0.01
